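Tested at 5 concentrations; 48 h exposure; 96-well plates; endpoints linearly interpolated, else capped at highest concentration. At the TGI there is no net growth.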
How the values were obtained:
Assay in all cases: NCI-60 cell line screen, 48 h
786-0 renal = test system: 786-0 renal
SNB-75 CNS = test system: SNB-75 CNS
CCRF-CEM leukemia = test system: CCRF-CEM leukemia
TK-10 renal = test system: TK-10 renal
SK-MEL-5 melanoma = test system: SK-MEL-5 melanoma
EKVX NSCLC = test system: EKVX NSCLC
A498 renal = test system: A498 renal
NCI-H460 lung = test system: NCI-H460 lung
IGROV1 ovarian = test system: IGROV1 ovarian
OVCAR-8 ovarian = test system: OVCAR-8 ovarian
SF-539 CNS = test system: SF-539 CNS
HOP-92 NSCLC = test system: HOP-92 NSCLC
OVCAR-3 ovarian = test system: OVCAR-3 ovarian
SK-MEL-28 melanoma = test system: SK-MEL-28 melanoma
NCI-H226 lung = test system: NCI-H226 lung
UACC-257 melanoma = test system: UACC-257 melanoma
DU-145 prostate = test system: DU-145 prostate
A549 NSCLC = test system: A549 NSCLC
SK-MEL-2 melanoma = test system: SK-MEL-2 melanoma

SMILES | TGI (786-0 renal) | TGI (SNB-75 CNS) | TGI (CCRF-CEM leukemia) | TGI (TK-10 renal) | TGI (SK-MEL-5 melanoma) | TGI (EKVX NSCLC) | TGI (A498 renal) | TGI (NCI-H460 lung) | TGI (IGROV1 ovarian) | TGI (OVCAR-8 ovarian) | TGI (SF-539 CNS) | TGI (HOP-92 NSCLC) | TGI (OVCAR-3 ovarian) | TGI (SK-MEL-28 melanoma) | TGI (NCI-H226 lung) | TGI (UACC-257 melanoma) | TGI (DU-145 prostate) | TGI (A549 NSCLC) | TGI (SK-MEL-2 melanoma)
O=C1C(Cl)=C(Oc2ccc([N+](=O)[O-])cc2)C(=O)c2c(O)ccc(O)c21 | > 100 µM | > 100 µM | 12.9 µM | > 94 µM | > 100 µM | > 100 µM | > 100 µM | > 100 µM | > 100 µM | > 100 µM | > 100 µM | 56.6 µM | > 100 µM | > 76.2 µM | > 100 µM | > 100 µM | > 100 µM | > 100 µM | 
CC(C)=CCC/C(=C\CC/C(=C\CCc1ccoc1)C(=O)O)C(=O)O | > 100 µM | > 100 µM | > 100 µM | > 100 µM | > 100 µM | > 100 µM | > 100 µM |  | > 100 µM | > 100 µM | > 100 µM | > 100 µM | > 100 µM | > 100 µM | > 100 µM | > 100 µM | > 100 µM | > 100 µM | > 100 µM
C[C@]12CC[C@H](O)CC1=CC[C@@H]1C2CC[C@]2(C)c3nn(-c4ccc(F)cc4)nc3CC12 (stereo partly drawn) | > 100 µM | 74.4 µM | > 100 µM | > 100 µM | > 100 µM | > 100 µM | > 100 µM | > 100 µM | > 100 µM | > 100 µM | > 100 µM | > 100 µM | > 100 µM | > 100 µM | > 100 µM | > 100 µM | > 100 µM | > 100 µM | 
CSc1nc2c(c(=O)n1C)N=C(c1ccc(Cl)cc1)CC(c1ccccc1)N2 (stereo not drawn) | > 100 µM | 37.2 µM | 72.6 µM |  | 33.7 µM | 65.1 µM | > 100 µM |  | 55.4 µM | > 100 µM | 31.7 µM | > 100 µM | > 100 µM | > 100 µM | 42.6 µM | 54.8 µM | 73 µM | 73.7 µM | 29.5 µM
CN1[C@@H]2CCCC[C@H]2N(C)P1(=O)C(O)/C=C/c1ccccc1 (stereo partly drawn) | > 100 µM | > 100 µM | > 100 µM | > 100 µM | > 100 µM | > 100 µM | > 100 µM | > 100 µM | > 100 µM | > 100 µM |  | > 100 µM | > 100 µM | > 100 µM | > 100 µM | > 100 µM | > 100 µM | > 100 µM | > 100 µM
CCn1nc(-c2ccccc2)c2c1N(C)c1ccccc1-n1c(-c3ccccc3)nnc1-2 | 30.6 µM | 15.7 µM | > 100 µM | 31.1 µM | 21.2 µM |  | 11.2 µM | 29.2 µM | 40.3 µM | 62.3 µM | 48 µM | 35.9 µM |  | 33.1 µM | 52.7 µM |  | 29.7 µM | 29.9 µM | 32.8 µM
O=C1CSC(c2cccc(Cl)c2)N1c1c(O)c(Cl)cc(Br)c1Cl (stereo not drawn) | 71.7 µM | > 100 µM | 44.8 µM | > 100 µM | > 100 µM | > 100 µM | > 100 µM | > 100 µM |  |  | > 100 µM | 29.9 µM | 33.4 µM | > 100 µM | > 100 µM | 67.4 µM | > 100 µM | > 100 µM | 29 µM
CCN(CC)c1ccc(/C=c2\nc(-c3ccccc3)n3c2nc2ccccc23)cc1 | > 100 µM |  | 11.7 µM | > 100 µM | 21.9 µM | 35.4 µM | > 100 µM | > 100 µM | > 100 µM | > 100 µM | 11.4 µM | > 100 µM | > 100 µM |  | 60.5 µM | 99.3 µM | > 100 µM | > 100 µM | > 100 µM
COc1ccc(/C=C2\Sc3nnc(C)n3N=C2c2cc(F)c(Cl)cc2Cl)cc1OC | 9.64 µM |  | > 100 µM | 32.8 µM | 36.2 µM | 22.7 µM | 37.1 µM | 53.1 µM | 31 µM | 37.9 µM | 37.7 µM | 28.6 µM | 16 µM | 49.2 µM | 51.8 µM | 32.5 µM | 27.8 µM | 56.2 µM | 33.6 µM
C=C(C)[C@@H]1CC[C@]2(CO)CC[C@]3(C)[C@H](CC[C@@H]4[C@@]5(C)CC[C@H](O)C(C)(C)[C@@H]5CC[C@]43C)[C@@H]12 | 27.1 µM | 28.9 µM | > 100 µM | 38 µM | 57.9 µM | 87.6 µM | 61.9 µM | > 100 µM | > 100 µM | 60.1 µM | 33.8 µM | 41 µM | 66.4 µM | > 100 µM | > 100 µM | 54.9 µM | > 100 µM | 26.9 µM | 
CC1(CCc2ccccc2)CC1(Br)Br (stereo not drawn) | 57.5 µM | > 100 µM | 67.7 µM |  | 30.1 µM | 40 µM | > 100 µM | > 100 µM | > 100 µM | 50.8 µM | > 100 µM | 60.2 µM | 39.9 µM | > 100 µM | 77.1 µM | 83.6 µM | > 100 µM | > 100 µM | 36.1 µM
C/C=C1/CN2[C@@H](C3=C[C@@H]4[C@@H]5N(C3=O)c3ccccc3[C@@]53CCN5C/C(=C/C)[C@@H]4C[C@H]53)C[C@@]34c5ccccc5N5C(=O)CC=C([C@H]1C[C@H]23)[C@H]54 | 7.8 µM | 17.4 µM | 2.94 µM | 15 µM | 8.93 µM | 12.1 µM | 14.5 µM | 15.4 µM |  | 13.1 µM | 2.87 µM | 13.2 µM | 15.8 µM | 3.91 µM | 16.5 µM | 2.9 µM | 22.1 µM | 15.3 µM | 11.6 µM
CN1c2ccccc2C(=O)NC12CCN(Cc1ccccc1)CC2 | > 100 µM | > 100 µM | > 100 µM | > 100 µM | > 100 µM | > 100 µM | > 100 µM | > 100 µM | > 100 µM | > 100 µM | > 100 µM | 98.5 µM |  | > 100 µM | > 100 µM | > 100 µM | > 100 µM | > 100 µM | 

Reference: PubChem BioAssay (NCI)
